Measured values reported in PMC8523698, “Preclinical characterization of an intravenous coronavirus 3CL protease inhibitor for the potential treatment of COVID19” (Nature Communications, 2021).
Several values for one entry are separate records, joined by “and”; a condition that tells them apart may be missing. Equal values may be shown once.

How the values were obtained:
[1] = Monkey pharmacokinetic study; conditions: for AUC(0-inf): AUCinf; for Vd: Vdss; for AUC(0-t): po, AUCt; for Total Concn in plasma: 1mg/kg IV PF-00835231 dosed (crossover), individual animals and mean
[2] = Plasma protein binding by equilibrium dialysis; conditions: for fraction unbound at 6 h, 5 uM / fraction unbound at 6 h: rat, plasma
[3] = male, Cynomolgus, cynomolgus monkey, plasma, iv, 1 mg/kg, Mean, monkey, PF-00835231 active dosed 1mg/kg intravenous (crossover)
[4] = male, Cynomolgus, cynomolgus monkey, plasma, iv, 1 mg/kg, monkey, PF-00835231 active dosed 1mg/kg intravenous (crossover), individual monkeys
[5] = monkey, PF-00835231 active dosed 1mg/kg intravenous (crossover), individual monkeys, 1 mg/kg

SMILES: COc1cccc2[nH]c(C(=O)N[C@@H](CC(C)C)C(=O)N[C@@H](C[C@@H]3CCNC3=O)C(=O)CO)cc12 [PF-00835231]
- Total Concn, Mean ([1]; Monkey, 1mg/kg intravenous, Time 2): 46 ng/mL
- Total Concn ([1]; Monkey, 1mg/kg intravenous, Time 2, individual animals, 1 mg/kg): 45.5 ng/mL and 47 ng/mL
- Total Concn, Mean ([1]; Monkey, 1mg/kg intravenous, Time 4): 13 ng/mL
- Total Concn ([1]; Monkey, 1mg/kg intravenous, Time 4, individual animals, 1 mg/kg): 12.2 ng/mL and 14 ng/mL
- Total Concn, Mean ([1]; Monkey, 1mg/kg intravenous, Time 7): 2.6 ng/mL
- Total Concn ([1]; Monkey, 1mg/kg intravenous, Time 7, individual animals, 1 mg/kg): 2.87 ng/mL and 2.25 ng/mL
- Vdss ([1]; Monkey, 1mg/kg intravenous, individual animals, 1 mg/kg): 1.51 L/kg
- AUC(0-inf) [1, 3]: 583 ng·h/mL
- AUC(0-inf) [1, 4]: 614 ng·h/mL
- clearance ([1]; male, Cynomolgus, cynomolgus monkey, plasma, iv, 1 mg/kg, Clearance, Mean, monkey, PF-00835231 active dosed 1mg/kg intravenous (crossover)): 28.7 mL/min/kg
- clearance ([1]; male, Cynomolgus, cynomolgus monkey, plasma, iv, 1 mg/kg, Clearance, monkey, PF-00835231 active dosed 1mg/kg intravenous (crossover), individual monkeys): 27.1 mL/min/kg
- half-life ([1]; male, Cynomolgus, cynomolgus monkey, plasma, iv, 1 mg/kg, Half life, Mean, monkey, PF-00835231 active dosed 1mg/kg intravenous (crossover)): 0.92 h
- half-life ([1]; male, Cynomolgus, cynomolgus monkey, plasma, iv, 1 mg/kg, Half life, monkey, PF-00835231 active dosed 1mg/kg intravenous (crossover), individual monkeys): 1.14 h
- Vd [1, 3]: 1.43 L/kg
- Vd [1, 4]: 1.34 L/kg
- half-life ([1]; male, cynomolgus monkey, plasma, iv, 1 mg/kg, Terminal T1/2, monkey IV (n=2, range), PF-07304814 […], PF-00835231 1.0mg/kg): < 2 h
- Vd ([1]; male, cynomolgus monkey, plasma, iv, 1 mg/kg, Mean, Monkey, 1mg/kg intravenous): 1.43 L/kg
- Vd ([1]; male, cynomolgus monkey, plasma, iv, 1 mg/kg, Monkey, 1mg/kg intravenous, individual animals): 1.34 L/kg
- Vd ([1]; male, cynomolgus monkey, plasma, iv, 1 mg/kg, Monkey, Vdss input): 1.4 L/kg
- Vd ([1]; male, cynomolgus monkey, plasma, iv, 1 mg/kg, monkey IV (n=2, range), PF-07304814 […], PF-00835231 1.0mg/kg): < 1.5 L/kg
- clearance ([1]; male, cynomolgus monkey, plasma, iv, Cl, monkey IV (n=2, range), PF-07304814 […], PF-00835231 1.0mg/kg): 28.7 mL/min/kg
- half-life ([1]; male, cynomolgus monkey, plasma, iv, Terminal T1/2, monkey IV (n=2, range), PF-07304814 […], PF-00835231 1.0mg/kg): 1.2 h
- Vd ([1]; male, cynomolgus monkey, plasma, iv, monkey IV (n=2, range), PF-07304814 […], PF-00835231 1.0mg/kg): 1.4 L/kg
- AUC(0-t) ([1]; male, cynomolgus monkey, plasma, 5 mg/kg, Mean, monkey, PF-00835231 5mg/kg PO dose): 0.466 ng·h/mL
- AUC(0-t) ([1]; male, cynomolgus monkey, plasma, 5 mg/kg, monkey, PF-00835231 5mg/kg PO dose, individual monkeys): 0.328 ng·h/mL
- Total Concn ([1]; monkey plasma, PF-00835231 active dosed 1mg/kg intravenous (crossover), time 0.5 h, individual monkeys, 1 mg/kg): 212 ng/mL
- Total Concn ([1]; monkey plasma, PF-00835231 active dosed 1mg/kg intravenous (crossover), time 1 h, individual monkeys, 1 mg/kg): 124 ng/mL
- Total Concn ([1]; monkey plasma, PF-00835231 active dosed 1mg/kg intravenous (crossover), time 2 h, individual monkeys, 1 mg/kg): 47 ng/mL
- Total Concn ([1]; monkey plasma, PF-00835231 active dosed 1mg/kg intravenous (crossover), time 4 h, individual monkeys, 1 mg/kg): 14 ng/mL
- Total Concn ([1]; monkey plasma, PF-00835231 active dosed 1mg/kg intravenous (crossover), time 7 h, individual monkeys, 1 mg/kg): 2.25 ng/mL
- Urine Concn ([1]; monkey urine 0-7h, PF-00835231 active dosed 1mg/kg intravenous (crossover), individual monkeys, 1 mg/kg): 260 ng/mL and 304 ng/mL
- Urine Concn ([1]; monkey urine 7-24h, PF-00835231 active dosed 1mg/kg intravenous (crossover), individual monkeys, 1 mg/kg): 6.76 ng/mL and 33.1 ng/mL
- Total Concn in plasma ([1]; monkey, Time 0.083, 1 mg/kg): 1220 ng/mL and 1225 ng/mL
- Total Concn in plasma ([1]; monkey, Time 0.25, 1 mg/kg): 442 ng/mL and 365 ng/mL
- Total Concn in plasma ([1]; monkey, Time 0.5, 1 mg/kg): 212 ng/mL and 183 ng/mL
- Total Concn in plasma ([1]; monkey, Time 1, 1 mg/kg): 124 ng/mL and 107 ng/mL
- Total Concn in plasma ([1]; monkey, Time 2, 1 mg/kg): 47 ng/mL and 46 ng/mL
- Total Concn in plasma ([1]; monkey, Time 4, 1 mg/kg): 14 ng/mL and 13 ng/mL
- Total Concn in plasma ([1]; monkey, Time 7, 1 mg/kg): 2.87 ng/mL and 2.25 ng/mL and 2.6 ng/mL
- AUCt ([1]; monkey, PF-00835231 5mg/kg PO dose, individual monkeys, 5 mg/kg): 0.603 ng·h/mL
- AUCinf [1, 5]: 552 ng·h/mL
- Half life [1, 5]: 1.27 h
- Vdss [1, 5]: 1.51 L/kg
- clearance [1, 5]: 30.2 mL/min/kg
- Oral F% ([1]; monkey, 5mg/kg PO vs 1.0mg/kg IV): < 0.1% and < 2%
- Individual fraction unbound ([2]; Rat Wistar han plasma, 5.0 uM, replicates Day 1-3): 0.368 and 0.323 and 0.339 and 0.35 and 0.268 and 0.363 and 0.364 and 0.263 and 0.326 and 0.358 and 0.285
- fraction unbound at 6 h, 5 uM ([2]; Wistar Han, pH 7.4, Fraction unbound, Geomean, Rat plasma, 5.0 uM, n 12): 0.327
- fraction unbound at 6 h, 5 uM ([2]; Wistar Han, pH 7.4, Individual fraction unbound, Rat Wistar han plasma, 5.0 uM, replicates Day 1-3): 0.343
- fraction unbound at 6 h ([2]; Wistar Hannover, pH 7.4, Plasma fu, Vdss input): 0.327
- fraction unbound at 6 h ([2]; Wistar Hannover, pH 7.4, Unbound fraction fu (%CV), rat plasma (PF-07304814 Sprague-Dawley, PF-00835231 Wistar Hannover)): 0.327
- fraction unbound at 6 h, 5 uM ([2]; Wistar Hannover, pH 7.4, fraction unbound Geomean, rat plasma, 5.0 uM, n=12): 0.327
